Common to all, as to assay: NCI-60 cell line screen, 48 h
Experiment [1] has as its system 786-0.
The test system of experiment [2] is A549.
Experiment [3] relates to HT-29.
In experiment [4] the test system is Hs-578T.
Experiment [5] relates to IGROV-1.
The test system of experiment [6] is KM12.
In experiment [7] the test system is LOX IMVI.
Experiment [8] relates to MCF7.
For experiment [9], the system named is MDA-MB-231.
For experiment [10], the system named is MDA-N.
Experiment [11] concerns NCI-H226.
Experiment [12] relates to NCI-H460.
The test system of experiment [13] is OVCAR-4.
Experiment [14] relates to PC-3.
Experiment [15] has as its system SK-MEL-5.
The test system of experiment [16] is SNB-19.
The subject of experiment [17] is SR.
For experiment [18], the system named is SW-620.
For experiment [19], the system named is T47D.
The subject of experiment [20] is UACC-62.

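Briefly, cells in 96-well plates were exposed to five compound concentrations for 48 h, and endpoints were estimated by linear interpolation. The concentration for 50% growth inhibition is given as GI50.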 Activity calls are given as the source filed them. Rule as the data show it: active = GI50 up to about 1.1 µM and inactive = higher.

With `CN(C)CCCn1c(Cc2ccc(Cl)cc2)nc2cc(C(F)(F)F)ccc21`, the GI50 in [1] is 13.9 µM (inactive); in [2] it was 18.2 µM (inactive); in experiment [3], 14.6 µM (inactive); in experiment [4] it was 16.6 µM (inactive); in [5] it was 13.1 µM (inactive); in [6], 14.3 µM (inactive). For the same molecule, the GI50 in experiment [7] is 14.5 µM (inactive); in experiment [8], 14.5 µM (inactive); in experiment [9], 13.6 µM (inactive); in [10], 12 µM (inactive); in experiment [11], 18.7 µM (inactive); in experiment [12] it was 13.2 µM (inactive). Also, the GI50 in experiment [13] was 13.6 µM (inactive); in experiment [14] it was 15.4 µM (inactive); in [15], 15.8 µM (inactive); in experiment [16], 16.5 µM (inactive); in [17], 15 µM (inactive); in experiment [18], 23.4 µM (inactive). For the same molecule, the figures for the GI50 in experiment [19] and in experiment [20] were 12 µM (inactive) and 17.3 µM (inactive), respectively.
Take `Cc1ccc(-c2cn3c(nc4ccccc43)c(C)n2)cc1`: the GI50 in experiment [1] is 25.8 µM (inactive); in [2], 55.1 µM (inactive); in experiment [3] it was 24.4 µM (inactive); in experiment [4], 51.3 µM (inactive); in experiment [5] it was 11.7 µM (inactive); in experiment [6] it was > 100 µM (inactive). In addition, the GI50 in [7] is 71.6 µM (inactive); in experiment [8], 0.578 µM (active); in experiment [9], > 94.6 µM (inactive); in [10] it was 54.1 µM (inactive); in [11], 34.3 µM (inactive); in [12], 26.7 µM (inactive). Further, the GI50 in [13] is 59 µM (inactive); in experiment [14], 46.6 µM (inactive); in [15] it was 10.7 µM (inactive); in experiment [16], 66.2 µM (inactive); in experiment [17], 21.5 µM (inactive); in experiment [18] it was > 100 µM (inactive). Besides, the GI50 in experiment [19] was 4.2 µM (inactive); in [20] it was 23.5 µM (inactive).
For the molecule `CC(C)NC(=O)OCc1c(COC(=O)NC(C)C)c(-c2cc[n+](COC(=O)C(C)(C)C)cc2)n2c1CCC2`, the GI50 in [1], in experiment [2], in [3], in experiment [4], in [5] and in experiment [6] was > 100 µM (inactive) each time. Also, the GI50 in [7], in experiment [8], in experiment [9], in experiment [10], in [11] and in experiment [12] was > 100 µM (inactive) each time. The GI50 in experiment [13] was > 100 µM (inactive); in [14] it was > 100 µM (inactive); in experiment [15], > 100 µM (inactive); in experiment [16], > 100 µM (inactive); in experiment [17], 19.1 µM (inactive); in experiment [18], > 100 µM (inactive). Also, the GI50 in experiment [19] and in experiment [20] was > 100 µM (inactive) in each case.
`CN1CCN(C2=C(Cl)C(=O)c3c(O)ccc(O)c3C2=O)CC1`: the GI50 in experiment [1] is 0.244 µM (active); in [2], 2.16 µM (inactive); in experiment [3] it was 0.359 µM (active); in [4], 2.41 µM (inactive); in experiment [5] it was 1.3 µM (inactive); in experiment [6], 1.99 µM (inactive). The GI50 was 0.635 µM (active) in [7]; 0.24 µM (active) in [8]; 0.516 µM (active) in [9]; 0.35 µM (active) in experiment [10]; 2 µM (inactive) in experiment [11]; 1.94 µM (inactive) in experiment [12]. The GI50 in experiment [13] is 0.377 µM (active); in experiment [14], 1.73 µM (inactive); in experiment [15] it was 0.502 µM (active); in [16] it was 4.99 µM (inactive); in experiment [17], 0.094 µM (active); in [18] it was 0.187 µM (active). In addition, the results for the GI50 in [19] and in [20] were 0.551 µM (active) and 1.32 µM (inactive), respectively.
Regarding `CNc1ccc(C)cc1S(=O)(=O)c1ccccc1[N+](=O)[O-]`, the GI50 in experiment [1] was 64.6 µM (inactive); in experiment [2] it was 41.3 µM (inactive); in [3], 48.1 µM (inactive); in experiment [4], 55.7 µM (inactive); in experiment [5], 58.5 µM (inactive); in experiment [6], 59.4 µM (inactive). The GI50 in experiment [7] was 30.9 µM (inactive); in experiment [8], 30 µM (inactive); in [9], > 100 µM (inactive); in experiment [10], 26.2 µM (inactive); in [11], 75.5 µM (inactive); in [12] it was 51.1 µM (inactive). The GI50 in experiment [13] was 25.2 µM (inactive); in [14], 28.1 µM (inactive); in [15], 18.2 µM (inactive); in experiment [16], 78 µM (inactive); in [17], 51.3 µM (inactive); in [18], 69.8 µM (inactive). Also, the results for the GI50 in [19] and in experiment [20] were 29 µM (inactive) and 22.1 µM (inactive), respectively.
For the molecule `CS(=O)(=O)Nc1ccc2c(c1)oc(=O)c1ccccc12`, the GI50 in experiment [1], in experiment [2], in experiment [3], in [4], in [5] and in experiment [6] was > 100 µM (inactive) each time. The GI50 in experiment [7], in [8], in experiment [9], in [10], in experiment [11] and in [12] was > 100 µM (inactive) throughout. The GI50 in [13], in experiment [14], in experiment [15], in [16], in [17] and in experiment [18] was > 100 µM (inactive) in each case. Besides, the GI50 in [19] is > 100 µM (inactive); in [20], 65 µM (inactive).
Take `CN1CCN(c2cc3nc4cc(O)cc(O)c4c(O)c3cc2N)CC1`: the GI50 in experiment [1] was 38.7 µM (inactive); in experiment [2], 61 µM (inactive); in experiment [3], 23.2 µM (inactive); in experiment [4] it was 29.7 µM (inactive); in [5], 20.2 µM (inactive); in experiment [6], 27.4 µM (inactive). Besides, the GI50 is 16.2 µM (inactive) in [7]; 17.7 µM (inactive) in experiment [8]; 1.53 µM (inactive) in [9]; 23.4 µM (inactive) in experiment [10]; 1.95 µM (inactive) in experiment [11]; 36.3 µM (inactive) in [12]. Further, the GI50 was 27.4 µM (inactive) in experiment [13]; 18.1 µM (inactive) in experiment [14]; 18.5 µM (inactive) in experiment [15]; 37.1 µM (inactive) in [16]; 6.14 µM (inactive) in experiment [17]; 21.9 µM (inactive) in [18]. The figures for the GI50 in [19] and in experiment [20] were 21.6 µM (inactive) and 1.57 µM (inactive), respectively.
`O=C(O)CCSC(CC1(c2ccc(Cl)cc2)NC(=O)CCS1)c1ccccc1` (stereo not given): the GI50 in [1] was 6.7 µM (inactive); in experiment [2], 24.2 µM (inactive); in experiment [3] it was 17.3 µM (inactive); in experiment [4], 12.9 µM (inactive); in experiment [5] it was 12.1 µM (inactive); in [6], 3.56 µM (inactive). Besides, the GI50 in experiment [7] is 14.6 µM (inactive); in experiment [8], 3.87 µM (inactive); in experiment [9] it was 22.1 µM (inactive); in experiment [10] it was 12.6 µM (inactive); in [11], 17.3 µM (inactive); in experiment [12], 16.8 µM (inactive). In addition, the GI50 in experiment [13] was 15 µM (inactive); in experiment [14] it was 18.7 µM (inactive); in experiment [15], 13 µM (inactive); in [16] it was 23.8 µM (inactive); in experiment [17], 8.32 µM (inactive); in [18] it was 5.12 µM (inactive). In addition, the GI50 is 16.1 µM (inactive) in experiment [19] and 19.9 µM (inactive) in experiment [20].
In the case of `O=C(Nc1ccccc1)O/N=C(/CBr)c1ccccc1`, the GI50 in experiment [1] was 7.71 µM (inactive); in [2] it was 34 µM (inactive); in [3] it was 6.87 µM (inactive); in [4], 26.2 µM (inactive); in [5], 14.6 µM (inactive); in experiment [6] it was 17.9 µM (inactive). For the same molecule, the GI50 in experiment [7] was 3.15 µM (inactive); in experiment [8], 16.7 µM (inactive); in [9], 12.2 µM (inactive); in experiment [10] it was 6.87 µM (inactive); in experiment [11] it was 24 µM (inactive); in experiment [12], 19 µM (inactive). Further, the GI50 in experiment [13] is 15.1 µM (inactive); in experiment [14], 12.6 µM (inactive); in experiment [15], 11.9 µM (inactive); in [16] it was 20.6 µM (inactive); in experiment [17], 3.94 µM (inactive); in experiment [18], 5.35 µM (inactive). For the same molecule, the GI50 in [19] is 11.5 µM (inactive); in experiment [20] it was 12.3 µM (inactive).
Turning to `COc1cc(/C=C2\C[C@H]3[C@@H]4CCC5=CC(=O)CC[C@]5(C)[C@H]4CC[C@]3(C)C2=O)cc(OC)c1OC`, the GI50 in [1] is 23.1 µM (inactive); in experiment [2], 4.15 µM (inactive); in experiment [3] it was 5.82 µM (inactive); in experiment [4], 17.8 µM (inactive); in [5], 8.99 µM (inactive); in experiment [6], 3.58 µM (inactive). Moreover, the GI50 in [7] is 7.94 µM (inactive); in experiment [8] it was 3.56 µM (inactive); in [9], 7.74 µM (inactive); in [10], 4.43 µM (inactive); in experiment [11] it was > 28.5 µM (inactive); in [12], 6.35 µM (inactive). For the same molecule, the GI50 was 6.12 µM (inactive) in experiment [13]; 3.23 µM (inactive) in [14]; 3.07 µM (inactive) in [15]; 30.3 µM (inactive) in [16]; 3.04 µM (inactive) in experiment [17]; 8.61 µM (inactive) in experiment [18]. The GI50 in experiment [19] was 2.04 µM (inactive); in experiment [20], 4.35 µM (inactive).

Values taken from ChEMBL document CHEMBL1201862, “PubChem BioAssay data set” (2004).
